{"source": "paper PMC9102668", "about": "“Highly Cytotoxic Osmium(II) Compounds and Their Ruthenium(II) Analogues Targeting Ovarian Carcinoma Cell Lines and Evading Cisplatin Resistance Mechanisms” (International Journal of Molecular Sciences, 2022)", "assay_type_in_all_cases": "cell-based", "key": {"A2780cis": {"tested_on": "A2780cis", "assay": "MTT assay (CellTiter96), cytotoxic activity", "protocol": "(§1) The biological behaviour of all substances was characterized by their cytotoxic activity against a panel of cell lines enabling an understanding of the structure-activity relationship. Cytotoxic activity was determined on ovarian carcinoma cell lines SKOV3 and A2780 as well as their Cisplatin resistant analogues (SKOV3cis and A2780cis) and the lung carcinoma cell line A549. Due to a low solubility in water, dmso is used as a solvent for the preparation of a dilution series in cell culture experiments. The toxic influence of dmso was determined earlier and experiments were carried out with 0.5% dmso in cell culture media and this concentration was used as reference sample in each MTT assay (details: Section 3). […] Resistance factors (RF) were determined for all substances (for IC50 values and RF of β-Hydroxydithiocinnamic acid esters L1–L18, see Tables S2 and S3, Supplementary part). All investigated ruthenium(II) compounds show lower RF values than Cisplatin on ovarian carcinoma cell lines, ranging from 0.2 to 1.5 (Table 3). Whereas the IC50 values on the non-resistant cell lines are in most cases higher than the IC50 of the reference substance, no increase of IC50 values is observed for the resistant cell lines. Contrary, eight ruthenium complexes show lower IC50 values on SKOV3cis than Cisplatin and four compounds on A2780cis. Thus, it can be concluded that these compounds are able to bypass the Cisplatin resistance mechanism in these cell lines pointing to a different mechanism of action.\n(§2) Ovarian cancer cell lines were cultured under standard conditions (5% CO2, 37 °C, 90% humidity) in RPMI medium supplemented with 10% FCS, 100 U/mL penicillin and 100 µg/mL streptomycin (Life Technologies, Dreieich, Germany). Cisplatin (Sigma, Taufkirchen, Germany) was freshly dissolved at 1 mg/mL in 0.9% NaCl solution and diluted appropriately. New ruthenium(II) complexes and ligands were dissolved in dmso. Platinum-resistant A2780 and SKOV3 cells were established by repeated rounds of 3-day incubations with increasing amounts of Cisplatin starting with 0.1 µM. The concentration was doubled after 3 incubations, interrupted by recovery phases with normal medium. […] Determinations of IC50 values were carried out using the CellTiter96 non-radioactive proliferation assay (MTT assay, Promega, Mannheim, Germany). After seeding 5000 cells per well in a 96-well plate, cells were allowed to attach for 24 h and were incubated for 48 h with different concentrations of the substances ranging from 0 to 500 µM for Ruthenium and 0 to 1000 µM for ligand tests (0, 1, 10, 50, 100, 500, 1000 µm), for Cisplatin from 0 to 100 µM (0.1, 1, 5, 10, 50, 100 µM). Each measurement was done in triplicate and repeated 3 times. The proportion of viable cells was quantified by the MTT assay and after background subtraction relative values compared to the mean of medium controls were calculated. Non-linear regression analyses applying the Hill slope were run in GraphPad 5.0 software."}, "A2780": {"tested_on": "A2780", "assay": "MTT assay (CellTiter96), cytotoxic activity", "conditions": "48 h incubation", "protocol": "as §1, §2"}, "A549": {"tested_on": "A549", "assay": "MTT assay (CellTiter96), cytotoxic activity", "conditions": "lung carcinoma cell line, 48 h incubation", "protocol": "as §1, §2"}, "SKOV3cis": {"tested_on": "SKOV3cis", "assay": "MTT assay (CellTiter96), cytotoxic activity", "protocol": "as §1, §2"}, "SKOV3": {"tested_on": "SKOV3", "assay": "MTT assay (CellTiter96), cytotoxic activity", "conditions": "48 h incubation", "protocol": "as §1, §2"}, "Keratinocytes": {"tested_on": "Keratinocytes", "assay": "IC50 on non-cancerous cell cultures", "conditions": "normal primary short-term cell culture"}, "Fibroblasts": {"tested_on": "Fibroblasts", "assay": "IC50 on non-cancerous cell cultures", "conditions": "normal primary short-term cell culture"}, "MCF10A": {"tested_on": "MCF10A", "assay": "IC50 on non-cancerous cell cultures", "conditions": "non-cancerous breast epithelial cell line"}, "A2780 cells": {"tested_on": "A2780 cells", "assay": "Cell death rate, PI staining of live cells (FACS)", "conditions": "A2780 and SKOV3 cells, 20 µM and 30 µM, 48 h", "protocol": "For cell death rate analysis, live cells were stained with PI immediately after 48 h treatment. […] Furthermore, resistant cells show much lower Cisplatin-induced cell death rates (Figure 7). […] In A2780 cells, both compounds trigger similar cell death rates in parental and Cisplatin-resistant cells. Cisplatin-resistant SKOV3 are much more sensitive to both ruthenium(II) complexes than the parental counterpart, with a median of 3.3-fold higher sensitivity.\n(§3) To examine cell cycle distribution and cell death rates, 30,000 cells were seeded in 12 well plates. After attaching for 24 h cells were treated with Cisplatin, Ru3 and Ru14 for 48 h at various concentrations for cell cycle and cell death analyses. For cell death analysis, immediately after treatment cells were stained with Propidium Iodid (PI) (1 µg/mL) on ice and the number of dead cells was measured using BD Canto II. For cell cycle distribution, cells recovered for 24 h after treatment. Afterwards, cells were fixed in ice-cold, 50% EtOH for 24 h at −20 °C. For DNA staining, fixed cells were incubated in PBS with 0.05% Triton-X, 0.1 µg/mL RNaseA and 50 µg/mL PI for 1 h at 4 °C in dark. DNA content was measured using BD Canto II."}, "[1]": {"tested_on": "A2780 and SKOV3 cells and the resistant subcultures", "assay": "Cell cycle distribution, PI staining and FACS", "conditions": "48 h treatment, 24 h recovery", "protocol": "The reduced viability under treatment, as measured by the MTT assay, can be a result of cell cycle arrest and/or increased cell death. To further evaluate the anticancer properties of the ruthenium(II) complexes we measured cell cycle distribution and cell death rates after treatment with Ru3 or Ru14. After seeding and attaching, the cells were treated for 48 h with different concentrations of substances. For cell cycle distribution measurements, a recovery phase of 24 h was added after treatment, and cells were fixed and stained with PI for the DNA content. Arresting of cells in specific cell cycle phases gives them time to resolve the DNA damage (G1 arrest) or is an initial step to apoptosis if DNA damage is too severe (G2/M arrest).\nas §3"}, "[2]": {"tested_on": "Cisplatin resistant cell lines", "assay": "Mean IC50 (MTT assay) on Cisplatin resistant cell lines", "protocol": "(§4) Thus, it can be concluded that the biological activity is mediated by a longer chain (butoxy) at the meta-position, whereas the ortho- and para-positions are more suitable with a shorter chain (ethoxy). To have a further look at the influence of the different ligand systems and substitution patterns, all β-Hydroxydithiocinnamic acid alkyl esters were tested under same conditions as their derived ruthenium(II) complexes (Figure 5B, Supplementary Table S3). […] All ligands are less cytotoxic than Cisplatin itself and therefore the metal(II) center is necessary for the high cytotoxic activity, what is in clear contrast to the literature for O,S-chelating ruthenium(II) or osmium(II) compounds with thiomaltol ligand [48, 71] but confirmed for Ru(II)/Os(II) compounds with N,N-bidentate glycosyl heterocyclic ligands. This is exemplarily shown by the comparison of mean IC50 values for Cisplatin, L14, and Ru14 (Supplementary Figure S8).\nas §2"}, "all cancer cell lines": {"tested_on": "all cancer cell lines", "assay": "Mean IC50 (MTT assay) for all cancer cell lines", "protocol": "as §4\nOvarian cancer cell lines were cultured under standard conditions (5% CO2, 37 °C, 90% humidity) in RPMI medium supplemented with 10% FCS, 100 U/mL penicillin and 100 µg/mL streptomycin (Life Technologies, Dreieich, Germany). […] The proportion of viable cells was quantified by the MTT assay and after background subtraction relative values compared to the mean of medium controls were calculated. […]"}}}
{"substance": "[(η^6-p-cymene)Ru(1-(3-ethoxyphenyl)-3-(methylthio)-3-thioxo-prop-1-en-1-olate-O,S)] [Ru14]", "values": [{"measurement": "RF A2780 (resistance factor)", "setting": "A2780cis; A2780cis vs A2780", "value": 1.5}, {"measurement": "IC50", "setting": "A2780cis; Cisplatin resistant A2780, MTT assay, 48 h incubation", "value": 2.9, "unit": "µM"}, {"measurement": "IC50", "setting": "A2780", "value": 1.9, "unit": "µM"}, {"measurement": "IC50", "setting": "A549", "value": 2.7, "unit": "µM"}, {"measurement": "IC50", "setting": "SKOV3cis; Cisplatin resistant SKOV3, MTT assay, 48 h incubation", "value": 5.1, "unit": "µM"}, {"measurement": "RF SKOV3 (resistance factor)", "setting": "SKOV3cis; SKOV3cis vs SKOV3", "value": 1.5}, {"measurement": "IC50", "setting": "SKOV3", "value": 3.5, "unit": "µM"}, {"measurement": "IC50", "setting": "Keratinocytes", "value": "> 100", "unit": "µM"}, {"measurement": "IC50", "setting": "Fibroblasts", "value": "> 100", "unit": "µM"}, {"measurement": "IC50", "setting": "MCF10A", "value": 16.7, "unit": "µM"}, {"measurement": "capacity to induce cell death in vitro", "setting": "A2780 cells", "value": "high capacity to induce cell death"}, {"measurement": "effect on cell cycle distribution", "setting": "[1]", "value": "no or only a minor effect on cell cycle distribution"}, {"measurement": "mean IC50 value on Cisplatin resistant cell lines compared with Cisplatin", "setting": "[2]", "value": "lower"}, {"measurement": "mean IC50 value / cytotoxicity for all cancer cell lines compared with Cisplatin", "setting": "all cancer cell lines", "value": "lower"}]}
